Measured values taken from patent US7183255B2, “Method for stabilizing blood pressure in hemodialysis subjects” (Intradialytic Pharmaceuticals, priority 2003, dated 2007).
Several values for one entry are separate records, joined by “and”; a condition that tells them apart may be missing. Equal values may be shown once.

Assays:
Format in all cases: in vivo, human
[1] = tested on: ESRD patients during hemodialysis; assay: Similar study of fluid removal by hemodialysis with AVP vs placebo (FIG. 7); details: five patients on AVP (FIG. 7)
From the text: FIG. 7 depicts greater fluid removal by hemodialysis with AVP.

[2] = tested on: ESRD patients during hemodialysis; assay: Fluids needed to maintain blood pressure and weight lost during hemodialysis with AVP, 5 patients (Example 1, FIG. 6)
Method: (§1) Healthy controls and patients with end-stage renal disease (e.g. defined as creatinine clearance of less than 10 ml/min) were studied. The studies were conducted on regularly scheduled hemodialysis days. The duration of hemodialysis remained the same as that prescribed prior to the study period. AVP or placebo (normal saline) was administered at a constant rate of 0.15, 0.3 or o.6 mU/kg/min through a venous line (controls) or through the venous limb of the dialysis circuit (hemodialysis patients). The patient's hemodialysis prescription remained unchanged except for the administration of AVP or placebo. Intradialytic hypotension was treated in the customary manner with the infusion of isotonic and hypertonic fluids.
AVP Administration allows more fluid removal. […] Dialysis during the administration of AVP resulted both in a decreased in the amount of intravenous fluids needed to maintain blood pressure and in a greater decrease in weight.
The amount of fluids to maintain blood pressure during dialysis and the weight decrease were as given below: […]

[3] = Plasma vasopressin during constant vasopressin infusion in normal subjects and ESRD patients (Example 3, FIG. 8); details: normal subjects vs patients with ESRD
Method: Plasma vasopressin concentration. Vasopressin in plasma was determined as previously described (Landry, D. W., H. R. Levin, et al. (1997). Circulation 95(5): 1122–5).
Administration of vasopressin. In eight normal subjects and eight patients with ESRD off dialysis, 8-arginine vasopressin (vasopressin, American Pharmaceutical Partners, Schaumberg, Ill.) in normal saline was administered through an antecubital intravenous line. In eight patients with ESRD during hemodialysis, vasopressin was infused through the venous (blood return) limb of the dialysis circuit throughout the dialysis session at a rate of 0.15 or 0.3 mU·kg^−1·min^−1.
Effect of vasopressin administration on its plasma concentration in normal subjects and Patients with ESRD. Because the effect of renal failure on the clearance of plasma vasopressin has remained unresolved (Shade, R. E. and L. Share (1976). Endocrinology 99(5): 1199–206; Benmansour, M., M. Rainfray, et al. (1982). Eur J Clin Invest 12(6): 475–80; Argent, N. B., R. Wilkinson, et al. (1992). Clin Sci (Lond) 83(5): 583–7), we administered a constant infusion of hormone to normal subjects and to patients with ESRD and measured plasma levels.

[4] = tested on: normal subjects; assay: Systolic arterial pressure during AVP infusion in normal subjects (Example 1); details: for systolic arterial blood pressure: normals, n=12, M ± SD
Method: as §1
(§2) Serum AVP levels were determined by a radioimmunoassay technique. Blood pressure was measured with a cuff-type sphygmomanometer at 20 minute intervals.
We discovered that patients with ERSD are hypersensitive to vasopressin's pressor action.
The administration of exogenous AVP to patients with ESDR led to the discovery that these patients are hyper-responsive to the vascular effect of this hormone.

[5] = tested on: ESRD patients during hemodialysis; assay: Systolic arterial pressure during hemodialysis with AVP infusion vs vehicle, twelve patients (Example 1); details: for systolic arterial pressure: dialysis with AVP infused, M ± SD
Method: as §1, §2
AVP administration results in a higher intra-dialysis blood pressure. To examine whether vasopressin could help in supporting blood pressure during dialysis, we dialyzed a group of ESRD patients during administration of vehicle or during administration of vasopressin at a dose without pressor effect in normal subjects.
To determine the blood pressure effect of exogenous AVP during dialysis, two dialysis treatments were administered to twelve patients. In one, only the vehicle used to administer AVP was given while in the other treatment, AVP was infused. As shown, systolic arterial pressure decreased more than 10 mm Hg during the control dialysis while it decreased a maximum of 5 mm Hg during the dialysis in which AVP was infused.

[6] = hemodialysis with AVP, individual patients 1-5

SMILES: NC(=O)CC[C@@H]1NC(=O)[C@H](Cc2ccccc2)NC(=O)[C@H](Cc2ccc(O)cc2)NC(=O)[C@@H](N)CSSC[C@@H](C(=O)N2CCC[C@H]2C(=O)N[C@@H](CCCN=C(N)N)C(=O)NCC(N)=O)NC(=O)[C@H](CC(N)=O)NC1=O [AVP, 8-arginine vasopressin]
- blood pressure stability and extra fluid removal [1]: the blood pressure was stable and extra fluid removal was possible
- blood pressure stability and extra fluid removal ([2]; all patients on AVP (FIG. 6)): the blood pressure was stable and extra fluid removal was possible
- Fluids given to maintain blood pressure during dialysis [2, 6]: 0 mL
- Weight lost [2, 6]: 2.8 Kg and 1.8 Kg and 2.2 Kg (2×) and 3.0 Kg
- effect of renal failure on clearance of plasma vasopressin [3]: does not alter the clearance
- pressor action of AVP ([4]; normal subjects, same dose as in ESRD patients (FIG. 3A)): no pressure action
- systolic arterial blood pressure ([4]; 30 minutes of AVP infusion): 114 ± 10
- systolic arterial blood pressure ([4]; 60 minutes of AVP infusion): 113 ± 10
- systolic arterial blood pressure ([4]; 90 minutes of AVP infusion): 114 ± 10
- systolic arterial blood pressure ([4]; 120 minutes of AVP infusion): 113 ± 11
- systolic arterial blood pressure ([4]; before infusion (baseline)): 115 ± 13
- decrease of systolic arterial pressure during dialysis ([5]; dialysis in which AVP was infused, control dialysis decreased more than 10 mm Hg): ≤ 5 mm Hg
- systolic arterial pressure ([5]; 30 minutes of dialysis): 153 ± 25 mm Hg
- systolic arterial pressure ([5]; 60 minutes of dialysis): 155 ± 29 mm Hg
- systolic arterial pressure ([5]; 90 minutes of dialysis): 149 ± 30 mm Hg
- systolic arterial pressure ([5]; 120 minutes of dialysis): 148 ± 30 mm Hg
- systolic arterial pressure ([5]; 150 minutes of dialysis): 149 ± 31 mm Hg
- systolic arterial pressure ([5]; 180 minutes of dialysis): 149 ± 30 mm Hg
- systolic arterial pressure ([5]; before dialysis, twelve patients): 153 ± 28 mm Hg
